Patent publication US9993494B2, “Compositions and methods for treating fibrotic disease” (eFFECTOR Therapeutics, Inc., priority 2014, dated 2018)

Tested on: normal human lung fibroblasts
Test: Ribosomal profiling: translational efficiency in TGFβ-treated fibroblasts
Assay type: cell-based
Conditions: TGFβ-treated fibroblasts
Experimental: Ribosomal profiling allows for measurement of changes in transcription and translation on a genome-wide basis accompanying TGFβ-dependent transformation of fibroblasts to myofibroblasts. Ribosomal profiles of the TGFβ-treated fibroblasts from Example 1 (about 6×10^6 cells/10 cm plate) were prepared and analyzed for changes in translational efficiencies with respect to potential disease-associated cellular changes accompanying this TGFβ-induced transformation.
Briefly, cells were washed with cold PBS supplemented with cycloheximide and lysed with 1× mammalian cell lysis buffer for 10 minutes on ice. Lysates were clarified by centrifugation for 10 minutes at 14,000 rpm and supernatants were collected. Cell lysates were processed to generate ribosomal protected fragments and total mRNA according to the instructions included with the ARTseq Ribosome Profiling Kit (Illumina, San Diego, Calif.). Sequencing of total RNA (RNA) and of ribosome-protected fragments of RNA (RPF) was carried out using RNA-Seq methodology according to the manufacturer's instructions (Illumina). To analyze the ribosomal profiles, RNA-Seq reads were processed with tools from the FASTX-Toolkit (fastq_quality_trimmer, fastx_clipper and fastx_trimmer). Unprocessed and processed reads were evaluated for a variety of quality measures using FastQC, and processed reads were mapped to the human genome using TopHat (see, e.g., Trapnell et al., Bioinformatics 25:1105, 2009). Gene-by-gene assessment of the number of fragments strictly and uniquely mapping to the coding region of each gene was conducted using HTSeq-count, a component of the HTSeq package. […] Genes with low counts in either RPF or RNA were excluded from differential analyses. Pathway and network analyses of differential data were conducted using Ingenuity Pathway Analysis (IPA).

Cc1ccc(=O)n(-c2ccccc2)c1 [pirfenidone, 5-methyl-1-phenylpyridin-2-one]
++ (++ = 1.5 to 2.0): renormalizing the translational profile of CA5B (ENSG00000169239) | effect in renormalizing the translational profile of the gene (gene SLC40A1 (ENSG00000138449))
+ (+ = 0.9 to 1.5): renormalizing the translational profile of RPL9 (ENSG00000163682) | renormalizing the translational profile of RPL27A (ENSG00000166441) | renormalizing the translational profile of ANKDD1A (ENSG00000166839) | renormalizing the translational profile of EEF2 (ENSG00000167658) | renormalizing the translational profile of RPL4 (ENSG00000174444) | renormalizing the translational profile of AMIGO3 (ENSG00000176020) | renormalizing the translational profile of RPLP2 (ENSG00000177600) | renormalizing the translational profile of DNAJC22 (ENSG00000178401) | renormalizing the translational profile of RPL35A (ENSG00000182899) | renormalizing the translational profile of PDE4B (ENSG00000184588) | renormalizing the translational profile of NACA (ENSG00000196531) | renormalizing the translational profile of RPL37A (ENSG00000197756) | renormalizing the translational profile of RPL12 (ENSG00000197958) | renormalizing the translational profile of GNB2L1 (ENSG00000204628) | renormalizing the translational profile of RPL17 (ENSG00000215472) | effect in renormalizing the translational profile of the gene (gene RPS5 (ENSG00000083845)) | effect in renormalizing the translational profile of the gene (gene RPS8 (ENSG00000142937)) | effect in renormalizing the translational profile of the gene (gene RPS9 (ENSG00000170889)) | effect in renormalizing the translational profile of the gene (gene RPS10 (ENSG00000124614)) | effect in renormalizing the translational profile of the gene (gene RPS15 (ENSG00000115268)) | effect in renormalizing the translational profile of the gene (gene RPS15A (ENSG00000134419)) | effect in renormalizing the translational profile of the gene (gene RPS16 (ENSG00000105193)) | effect in renormalizing the translational profile of the gene (gene RPS18 (ENSG00000231500)) | effect in renormalizing the translational profile of the gene (gene RPS19 (ENSG00000105372)) | effect in renormalizing the translational profile of the gene (gene RPS27 (ENSG00000177954)) | effect in renormalizing the translational profile of the gene (gene RPS28 (ENSG00000233927)) | effect in renormalizing the translational profile of the gene (gene RPS29 (ENSG00000213741)) | effect in renormalizing the translational profile of the gene (gene SLC25A6 (ENSG00000169100)) | effect in renormalizing the translational profile of the gene (gene SOX6 (ENSG00000110693)) | effect in renormalizing the translational profile of the gene (gene SPATA6 (ENSG00000132122)) | effect in renormalizing the translational profile of the gene (gene STAMBPL1 (ENSG00000138134)) | effect in renormalizing the translational profile of the gene (gene STS (ENSG00000101846)) | effect in renormalizing the translational profile of the gene (gene TAF1D (ENSG00000166012)) | effect in renormalizing the translational profile of the gene (gene THBS3 (ENSG00000169231)) | effect in renormalizing the translational profile of the gene (gene TKT (ENSG00000163931))
− (− = <0.9): renormalizing the translational profile of RHOBTB3 (ENSG00000164292) | renormalizing the translational profile of HCN1 (ENSG00000164588) | renormalizing the translational profile of RP11-382A20.3.1 (ENSG00000166503) | renormalizing the translational profile of RPL13 (ENSG00000167526) | renormalizing the translational profile of MURC (ENSG00000170681) | renormalizing the translational profile of HTRA3 (ENSG00000170801) | renormalizing the translational profile of PDE7B (ENSG00000171408) | renormalizing the translational profile of LPAR3 (ENSG00000171517) | renormalizing the translational profile of CTPS (ENSG00000171793) | renormalizing the translational profile of QARS (ENSG00000172053) | renormalizing the translational profile of RPL38 (ENSG00000172809) | renormalizing the translational profile of MRPL45 (ENSG00000174100) | renormalizing the translational profile of RPL15 (ENSG00000174748) | renormalizing the translational profile of DES (ENSG00000175084) | renormalizing the translational profile of EIF3F (ENSG00000175390) | renormalizing the translational profile of CLCF1 (ENSG00000175505) | renormalizing the translational profile of C14orf49 (ENSG00000176438) | renormalizing the translational profile of IMPDH2 (ENSG00000178035) | renormalizing the translational profile of LENG9 (ENSG00000182909) | renormalizing the translational profile of C22orf32 (ENSG00000183172) | renormalizing the translational profile of NPW (ENSG00000183971) | renormalizing the translational profile of ROBO2 (ENSG00000185008) | renormalizing the translational profile of PTCH1 (ENSG00000185920) | renormalizing the translational profile of POLR1D (ENSG00000186184) | renormalizing the translational profile of DYNC2H1 (ENSG00000187240) | renormalizing the translational profile of RPL14 (ENSG00000188846) | renormalizing the translational profile of LRRK2 (ENSG00000188906) | renormalizing the translational profile of LAMB3 (ENSG00000196878) | renormalizing the translational profile of PCBP2 (ENSG00000197111) | renormalizing the translational profile of MAP3K5 (ENSG00000197442) | renormalizing the translational profile of LPAR1 (ENSG00000198121) | renormalizing the translational profile of RPL23A (ENSG00000198242) | renormalizing the translational profile of PLN (ENSG00000198523) | renormalizing the translational profile of RPL10A (ENSG00000198755) | renormalizing the translational profile of CES1 (ENSG00000198848) | renormalizing the translational profile of RPL39 (ENSG00000198918) | renormalizing the translational profile of CARD16 (ENSG00000204397) | renormalizing the translational profile of MICA (ENSG00000204520) | renormalizing the translational profile of RPL41 (ENSG00000229117) | renormalizing the translational profile of ARPC1A (ENSG00000241685) | renormalizing the translational profile of EEF1G (ENSG00000254772) | effect in renormalizing the translational profile of the gene (gene RPS2 (ENSG00000140988)) | effect in renormalizing the translational profile of the gene (gene RPS3 (ENSG00000149273)) | effect in renormalizing the translational profile of the gene (gene RPS3A (ENSG00000145425)) | effect in renormalizing the translational profile of the gene (gene RPS4X (ENSG00000198034)) | effect in renormalizing the translational profile of the gene (gene RPS4Y1 (ENSG00000129824)) | effect in renormalizing the translational profile of the gene (gene RPS6 (ENSG00000137154)) | effect in renormalizing the translational profile of the gene (gene RPS6KA5 (ENSG00000100784)) | effect in renormalizing the translational profile of the gene (gene RPS7 (ENSG00000171863)) | effect in renormalizing the translational profile of the gene (gene RPS11 (ENSG00000142534)) | effect in renormalizing the translational profile of the gene (gene RPS12 (ENSG00000112306)) | effect in renormalizing the translational profile of the gene (gene RPS13 (ENSG00000110700)) | effect in renormalizing the translational profile of the gene (gene RPS14 (ENSG00000164587)) | effect in renormalizing the translational profile of the gene (gene RPS20 (ENSG00000008988)) | effect in renormalizing the translational profile of the gene (gene RPS21 (ENSG00000171858)) | effect in renormalizing the translational profile of the gene (gene RPS23 (ENSG00000186468)) | effect in renormalizing the translational profile of the gene (gene RPS24 (ENSG00000138326)) | effect in renormalizing the translational profile of the gene (gene RPS25 (ENSG00000118181)) | effect in renormalizing the translational profile of the gene (gene RPS26 (ENSG00000197728)) | effect in renormalizing the translational profile of the gene (gene RPS27A (ENSG00000143947)) | effect in renormalizing the translational profile of the gene (gene RPSA (ENSG00000168028)) | effect in renormalizing the translational profile of the gene (gene RTN2 (ENSG00000125744)) | effect in renormalizing the translational profile of the gene (gene SEMA3A (ENSG00000075213)) | effect in renormalizing the translational profile of the gene (gene SGIP1 (ENSG00000118473)) | effect in renormalizing the translational profile of the gene (gene SH3BGR (ENSG00000185437)) | effect in renormalizing the translational profile of the gene (gene SHC3 (ENSG00000148082)) | effect in renormalizing the translational profile of the gene (gene SLC2A12 (ENSG00000146411)) | effect in renormalizing the translational profile of the gene (gene SLC7A7 (ENSG00000155465)) | effect in renormalizing the translational profile of the gene (gene SLC15A3 (ENSG00000110446)) | effect in renormalizing the translational profile of the gene (gene SMO (ENSG00000128602)) | effect in renormalizing the translational profile of the gene (gene SNRPA (ENSG00000077312)) | effect in renormalizing the translational profile of the gene (gene SOX5 (ENSG00000134532)) | effect in renormalizing the translational profile of the gene (gene SYNE2 (ENSG00000054654)) | effect in renormalizing the translational profile of the gene (gene TDG (ENSG00000139372)) | effect in renormalizing the translational profile of the gene (gene TEN1 (ENSG00000257949)) | effect in renormalizing the translational profile of the gene (gene TET2 (ENSG00000168769)) | effect in renormalizing the translational profile of the gene (gene TET3 (ENSG00000187605)) | effect in renormalizing the translational profile of the gene (gene TGFBI (ENSG00000120708)) | effect in renormalizing the translational profile of the gene (gene THG1L (ENSG00000113272)) | effect in renormalizing the translational profile of the gene (gene TIMM9 (ENSG00000100575)) | effect in renormalizing the translational profile of the gene (gene TMTC1 (ENSG00000133687)) | effect in renormalizing the translational profile of the gene (gene TOMM7 (ENSG00000196683)) | effect in renormalizing the translational profile of the gene (gene TOP2A (ENSG00000131747)) | effect in renormalizing the translational profile of the gene (gene TPGS1 (ENSG00000141933)) | effect in renormalizing the translational profile of the gene (gene TPM2 (ENSG00000198467)) | effect in renormalizing the translational profile of the gene (gene TPT1 (ENSG00000133112)) | effect in renormalizing the translational profile of the gene (gene TRERF1 (ENSG00000124496)) | effect in renormalizing the translational profile of the gene (gene UBA52 (ENSG00000221983)) | effect in renormalizing the translational profile of the gene (gene UQCRB (ENSG00000156467)) | effect in renormalizing the translational profile of the gene (gene UTRN (ENSG00000152818)) | effect in renormalizing the translational profile of the gene (gene VIM (ENSG00000026025)) | effect in renormalizing the translational profile of the gene (gene ZNF581 (ENSG00000171425)) | effect in renormalizing the translational profile of the gene (gene ZNF608 (ENSG00000168916))
35 genes: number of genes whose translational efficiency was uniquely modulated by the compound (duplicate ribosomal profiles)
+++ (+++ = >2.0): renormalizing the translational profile of CHCHD10 (ENSG00000250479)
